Laboratory results taken from patent publication US5098933A, “Pharmaceutically useful Michael addition products of unsaturated aldehydes and ketones and ascorbic acid” (Theracel Corporation, priority 1990, dated 1992).

Tests used:
splenic lymphocytes [1] = assay: Immunotoxicity--Multi-dose: lymphocyte blastogenesis / stimulation (PHA, Con A, PWM); type: in vivo, mice
Experimental: The immunotoxicological potential of KCPBL was evaluated in this experiment in which the study drug was administered to CD-1 mice for fourteen days (100 or 1000 mg/kg/day), either perorally (by gavage) or intravenously (tail vein). On the fifteenth day, the mice were weighed and sacrificed. The spleen, lungs, liver, kidneys and thymus were removed from each animal, fixed in formalin and histopathologically evaluated. In addition, a differential white blood cell count was obtained for a peripheral blood sample as well as the following tests performed: spleen cell counts (performed with Coulter Counter) and lymphocyte stimulation assays using PHA, CON-A and PWM techniques.
[…] Mice were administered KCPBL daily for a total of fourteen days via the oral (0.2 ml of a 147.5 mg/ml solution or a 29.5 mg/ml solution by gavage) and intravenous route (0.2 ml of 147.5 mg/ml solution or a 29.5 mg/ml solution by tail vein) to achieve a dose of 100 or 1000 mg/kg, respectively. The test dose was prepared fresh daily and dissolved in sterile non-pyrogenic saline. On the fifteenth day the mice were weighed, sacrificed, and the spleens, lungs, livers, kidneys and thymuses removed. These organs were weighed and, except for the spleens, the formalin-fixed organs were analyzed by a veterinary pathologist. Only two randomly-selected sets of animal organs per treatment group were histopathologically evaluated since the remaining three animals were used to isolate splenic lymphocytes for use in cellular immunoassays.
A leukocyte differential was obtained on peripheral blood samples and spleen cell counts (performed with Coulter Counter), and an IL-2 induction assessment as well as standard lymphocyte stimulation assays using PHA, CON-A and PWM conducted.
The individual spleens of three mice from control and test groups were processed to isolate lymphocytes and the protocols for lymphocyte blastogenesis, IL-2 induction and assay were performed. The remaining two mice in each group were sacrificed and their lungs, liver, kidney, and spleen were fixed in formalin and sent to AnMed Biosafe for histopathologic examination.

splenocytes = assay: Immunomodulation panel: total splenocyte counts, antigen stimulated mice; type: in vivo, C57BL/6J mice
Experimental: (§1) Daily intraperitoneal injections of KCPBL were administered to normal animals and immunological responsiveness to mitogens and specific antigen evaluated.
The test compound was weighed out immediately before use and dissolved in the injection vehicle. This solution was sterile-filtered using a 0.22 micron filter and the appropriate dose injected into mice in a 0.5 ml volume. The dose was individually calculated for each animal, based on animal weight on the first day of the experiment.
Inbred C57BL/6J mice were obtained from Jackson Laboratories, Bar Harbor, Me. The animals were held for one week before use in an experiment. Prior to commencement of a study, the animals were placed into groups and weighed.
Group size ten male mice per dosage group.
(§2) Doses and schedule--Doses were selected to bracket the range generally known to be immunostimulatory in past experiments, 1, 10, and […] daily for four days.
Immunization--All animals except for sham controls were injected with 0.5 ml of a 2% suspension of sheep erythrocyte on day zero. This occurred two days following any pretreatment and the day before the initiation of study drug administration.
Sacrifice--Animals were sacrificed by cervical dislocation on day five. […]
As an assessment of immunopathology in the above screening test panel, the cellularity of the spleen was evaluated by determination of the total number of splenocytes harvested. Humoral-mediated immunity was measured by enumerating IgM plaque-forming cells to the T-dependent antigen sheep erythrocytes. Cell-mediated immunity was evaluated as described above by determination of the ability of the splenocytes to produce the lymphokine interleukin-2 in response to stimulation by the mitogen concanavalin-A. Another measurement of cell-mediated immunity was the responsiveness of the splenic lymphocytes to the mitogens concanavalin-A (Con-A); phytohemagglutinin (PHA) and pokeweed mitogen (PWM) in the lymphocyte blastogenesis assay. […] The responsiveness of the cells was measured by the uptake of radiolabeled 14C-thymidine.

interleukin-2 = assay: Immunomodulation panel: In vitro production of interleukin-2 (CTLL2 bioassay); type: in vivo, C57BL/6J mice
Source text: The bioassay uses the IL-2 growth-dependent cell line, CTLL2 as the indicator cell line to quantitate IL-2 in a biological fluid. The assay utilizes tritiated thymidine uptake by these cells as a measure of cellular proliferation. A reference standard obtained from the NCI Biological Response Modifiers Program is employed to construct a standard curve and to calculate Half Maximal Units (HMU) activity per ml. The assay was modified from one reported by Gillis et al. (J. Immunol. 120: 2927, 1978) and was recently reviewed as a clinical bioassay (Shalaby and Pallidino, In: Manual of Clinical Laboratory Immunology, 3rd Ed., p 300, American Society for Microbiology, Washington, D.C.).
2. Each sample is assayed in triplicate, over dilutions of 1/2, 1/4, 1/8, and 1/16 in a 96 well flat bottom plate. A totoal of eight (8) samples may be assayed in a single 96 well plate.
Analysis: Values are obtained from counter as counts per minute (cpm). The average of each triplicate sample dilution count is calculated. A standard curve of known half maximal units of the IL-2 standard dilution/cpm is constructed using a PC program for generation of the least squares line of best fit. IL-2 values are thus assessed for each sample based upon the standard curve and reported.
as §1, §2
(§3) As an assessment of immunopathology in the above screening test panel, the cellularity of the spleen was evaluated by determination of the total number of splenocytes harvested. Humoral-mediated immunity was measured by enumerating IgM plaque-forming cells to the T-dependent antigen sheep erythrocytes. Cell-mediated immunity was evaluated as described above by determination of the ability of the splenocytes to produce the lymphokine interleukin-2 in response to stimulation by the mitogen concanavalin-A. Another measurement of cell-mediated immunity was the responsiveness of the splenic lymphocytes to the mitogens concanavalin-A (Con-A); phytohemagglutinin (PHA) and pokeweed mitogen (PWM) in the lymphocyte blastogenesis assay. In the latter test, the activation and proliferation of the lymphocytes to the mitogens represents the capability of the cells to sequentially pass from G0 to G1 and the S phse of the cell cycle. The responsiveness of the cells was measured by the uptake of radiolabeled 14C-thymidine.

splenic lymphocytes [2] = assay: Immunomodulation panel: lymphocyte blastogenesis (Con-A, PHA, PWM); type: in vivo, C57BL/6J mice
Experimental: as §1, §2, §3

splenic lymphocytes [3] = assay: as above; type: in vivo, C57BL/6J mice; settings: 100 mg/kg i.p.

In the case of `O=C1CCC(C2(O)C(=O)OC3C(O)COC32O)C1` (centres unmarked) [KCPBL], the “Lymphocyte Blastogenesis, Con A” value (splenic lymphocytes [1]; 100 mg/kg IV (group 5)) was 17292 ± 3202, the “Lymphocyte Blastogenesis, PHA” value (splenic lymphocytes [1]; 100 mg/kg IV (group 5)) was 8513 ± 3950 and the “Lymphocyte Blastogenesis, PWM” value (splenic lymphocytes [1]; 100 mg/kg IV (group 5)) was 7125 ± 3899. For the same compound, the “Lymphocyte Blastogenesis, RPMI” value (splenic lymphocytes [1]; 100 mg/kg IV (group 5)) was 234 ± 116, the “Lymphocyte Blastogenesis, Con A” value (splenic lymphocytes [1]; 100 mg/kg P.O. (group 4)) was 18948 ± 3543 and the “Lymphocyte Blastogenesis, PHA” value (splenic lymphocytes [1]; 100 mg/kg P.O. (group 4)) was 13432 ± 4075. The “Lymphocyte Blastogenesis, PWM” value (splenic lymphocytes [1]; 100 mg/kg P.O. (group 4)) was 6733 ± 1181, the “Lymphocyte Blastogenesis, RPMI” value (splenic lymphocytes [1]; 100 mg/kg P.O. (group 4)) was 307 ± 52 and the “Lymphocyte Blastogenesis, Con A” value (splenic lymphocytes [1]; 1000 mg/kg IV (group 3)) was 14471 ± 2913. The “Lymphocyte Blastogenesis, PHA” value (splenic lymphocytes [1]; 1000 mg/kg IV (group 3)) was 4473 ± 1181, the “Lymphocyte Blastogenesis, PWM” value (splenic lymphocytes [1]; 1000 mg/kg IV (group 3)) was 4402 ± 3641 and the “Lymphocyte Blastogenesis, RPMI” value (splenic lymphocytes [1]; 1000 mg/kg IV (group 3)) was 203 ± 122. The “Lymphocyte Blastogenesis, Con A” value (splenic lymphocytes [1]; 1000 mg/kg P.O. (group 2)) was 15151 ± 627, the “Lymphocyte Blastogenesis, PHA” value (splenic lymphocytes [1]; 1000 mg/kg P.O. (group 2)) was 8189 ± 1602 and the “Lymphocyte Blastogenesis, PWM” value (splenic lymphocytes [1]; 1000 mg/kg P.O. (group 2)) was 4896 ± 1547. The “Lymphocyte Blastogenesis, RPMI” value (splenic lymphocytes [1]; 1000 mg/kg P.O. (group 2)) was 244 ± 97, the “LSA response to PHA, CON-A and PWM lectins” value (splenic lymphocytes [1]; treated vs sham-injected controls) was “comparable” and the Splenocytes (splenocytes; 1.0 mg/kg i.p.) was 4.34 ± 0.7 ×10^7. The Splenocytes (splenocytes; 10 mg/kg i.p.) was 3.59 ± 0.8 ×10^7, the Splenocytes (splenocytes; 100 mg/kg i.p.) was 3.62 ± 0.4 ×10^7 and the “IL-2 Half Maximal Units” value (interleukin-2; 1.0 mg/kg i.p.) was 4.48 ± 1.5 Half Maximal Units [10^6 Cells. For the same compound, the “IL-2 Half Maximal Units” value (interleukin-2; 10 mg/kg i.p.) was 4.33 ± 1.4 Half Maximal Units [10^6 Cells, the “IL-2 Half Maximal Units” value (interleukin-2; 100 mg/kg i.p.) was 4.14 ± 1.3 Half Maximal Units [10^6 Cells and the “IL-2 production vs controls” value (interleukin-2; drug-treated animals) was “produced significantly more IL-2 than controls”. For the same compound, the “Lymphocyte Blastogenesis, PHA” value (splenic lymphocytes [2]; 1.0 mg/kg i.p.) was 5176 ± 1185 Counts per minute, the “Lymphocyte Blastogenesis, PWM” value (splenic lymphocytes [2]; 1.0 mg/kg i.p.) was 1977 ± 540 Counts per minute and the “Lymphocyte Blastogenesis, RPMI” value (splenic lymphocytes [2]; 1.0 mg/kg i.p.) was 95 ± 66 Counts per minute. For the same compound, the “Lymphocyte Blastogenesis, Con-A” value (splenic lymphocytes [2]; 10 mg/kg i.p.) was 10074 ± 1881 Counts per minute, the “Lymphocyte Blastogenesis, PHA” value (splenic lymphocytes [2]; 10 mg/kg i.p.) was 5590 ± 864 Counts per minute and the “Lymphocyte Blastogenesis, RPMI” value (splenic lymphocytes [2]; 10 mg/kg i.p.) was 95 ± 54 Counts per minute. For the same compound, the “reactivity of splenocytes to PHA” value (splenic lymphocytes [2]; drug-treated animals) was “reactivity to PHA was not affected”, the “responsiveness of splenocytes to Con-A” value (splenic lymphocytes [2]; drug-treated animals) was “slightly more responsive to Con-A” and the “responsiveness of splenocytes to PWM” value (splenic lymphocytes [2]; drug-treated animals) was “significant increases in the responsiveness”. The “Lymphocyte Blastogenesis, PHA” value (splenic lymphocytes [3]) was 5849 ± 1227 Counts per minute and the “Lymphocyte Blastogenesis, RPMI” value (splenic lymphocytes [3]) was 83 ± 35 Counts per minute.
